Like-named read-outs stand apart in the source and are kept apart here. Peptide text beside a SMILES is read from it. * marks the point of attachment. Cbz = O=C(OCc1ccccc1)*
Tests used:
[1] = target: CDK12-cycK and DDB1 (Homo sapiens, UniProt Q16531+Q9NYV4, K965R); assay: TR-FRET titration of CDK12-Alexa488cycK to terbiumDDB1; settings: vs basal binding in DMSO
[2] = target: cycKeGFP in HEK293TCas9 cells (Homo sapiens, UniProt Q16531+Q9NYV4); format: cell-based
[3] = target: CDK12-cycK complex by RBX1N8CUL4-DDB1 (Homo sapiens, UniProt Q16531+Q9NYV4, K965R); assay: In vitro ubiquitination assay; format: biochemical; settings: 2 μM compound
CDK12-cycK complex by RBX1N8CUL4-DDB1, sequence (Q15843 1-76): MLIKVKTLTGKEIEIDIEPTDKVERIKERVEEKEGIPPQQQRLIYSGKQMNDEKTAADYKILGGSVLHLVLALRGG
CDK12-cycK complex by RBX1N8CUL4-DDB1, sequence (Q16531 whole entry): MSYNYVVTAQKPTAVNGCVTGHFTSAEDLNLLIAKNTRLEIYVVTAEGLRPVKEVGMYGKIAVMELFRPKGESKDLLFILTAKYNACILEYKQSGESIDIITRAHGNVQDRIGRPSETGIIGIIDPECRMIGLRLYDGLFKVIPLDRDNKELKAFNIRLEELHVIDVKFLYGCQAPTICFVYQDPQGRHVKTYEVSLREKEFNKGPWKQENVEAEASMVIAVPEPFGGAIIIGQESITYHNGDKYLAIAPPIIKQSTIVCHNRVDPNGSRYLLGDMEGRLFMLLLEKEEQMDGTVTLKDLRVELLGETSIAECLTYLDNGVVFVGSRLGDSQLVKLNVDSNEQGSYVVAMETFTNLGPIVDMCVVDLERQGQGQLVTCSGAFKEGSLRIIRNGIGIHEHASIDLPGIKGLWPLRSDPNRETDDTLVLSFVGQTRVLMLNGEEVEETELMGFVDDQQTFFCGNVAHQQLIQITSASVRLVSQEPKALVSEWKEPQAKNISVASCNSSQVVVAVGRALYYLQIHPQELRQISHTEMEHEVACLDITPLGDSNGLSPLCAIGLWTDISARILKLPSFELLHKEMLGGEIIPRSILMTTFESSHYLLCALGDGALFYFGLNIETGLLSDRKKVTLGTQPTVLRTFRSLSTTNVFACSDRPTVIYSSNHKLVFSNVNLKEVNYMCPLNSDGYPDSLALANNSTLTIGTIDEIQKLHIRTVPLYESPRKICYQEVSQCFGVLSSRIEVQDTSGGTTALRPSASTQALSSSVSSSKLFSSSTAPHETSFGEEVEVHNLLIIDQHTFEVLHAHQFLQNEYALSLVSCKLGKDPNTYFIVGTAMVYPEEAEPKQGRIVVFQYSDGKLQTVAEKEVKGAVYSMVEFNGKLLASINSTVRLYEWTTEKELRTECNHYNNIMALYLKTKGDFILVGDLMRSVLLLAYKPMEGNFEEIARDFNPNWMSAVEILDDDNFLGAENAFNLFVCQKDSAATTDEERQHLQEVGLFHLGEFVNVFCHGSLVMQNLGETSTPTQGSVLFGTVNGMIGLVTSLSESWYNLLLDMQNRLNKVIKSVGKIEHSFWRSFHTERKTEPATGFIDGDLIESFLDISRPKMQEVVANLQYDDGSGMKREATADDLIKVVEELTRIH
CDK12-cycK complex by RBX1N8CUL4-DDB1, sequence (Q9NYV4 713-1052 K965R): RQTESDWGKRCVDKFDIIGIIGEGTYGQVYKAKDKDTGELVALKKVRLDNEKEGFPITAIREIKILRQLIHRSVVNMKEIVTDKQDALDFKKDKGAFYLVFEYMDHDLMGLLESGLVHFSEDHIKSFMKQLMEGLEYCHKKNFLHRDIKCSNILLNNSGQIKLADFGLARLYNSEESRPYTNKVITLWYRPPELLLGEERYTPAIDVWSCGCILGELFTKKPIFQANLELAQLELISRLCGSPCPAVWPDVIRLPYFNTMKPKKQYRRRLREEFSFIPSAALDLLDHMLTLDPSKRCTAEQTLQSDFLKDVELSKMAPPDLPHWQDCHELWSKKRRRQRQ
CDK12-cycK complex by RBX1N8CUL4-DDB1, sequence (P62877 whole entry, further chain): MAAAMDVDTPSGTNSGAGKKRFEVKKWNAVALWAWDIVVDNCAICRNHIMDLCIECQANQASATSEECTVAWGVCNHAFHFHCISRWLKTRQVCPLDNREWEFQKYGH
CDK12-cycK complex by RBX1N8CUL4-DDB1, sequence (O75909 1-267, further chain): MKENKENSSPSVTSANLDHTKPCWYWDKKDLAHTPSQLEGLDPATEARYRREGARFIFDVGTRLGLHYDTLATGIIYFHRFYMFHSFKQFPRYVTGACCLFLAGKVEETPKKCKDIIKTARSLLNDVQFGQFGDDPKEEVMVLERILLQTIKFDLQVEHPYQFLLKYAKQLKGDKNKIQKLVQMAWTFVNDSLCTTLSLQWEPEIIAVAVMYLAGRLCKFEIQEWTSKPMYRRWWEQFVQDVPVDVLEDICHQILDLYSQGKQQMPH
CDK12-cycK complex by RBX1N8CUL4-DDB1, sequence (Q13619 whole entry, further chain): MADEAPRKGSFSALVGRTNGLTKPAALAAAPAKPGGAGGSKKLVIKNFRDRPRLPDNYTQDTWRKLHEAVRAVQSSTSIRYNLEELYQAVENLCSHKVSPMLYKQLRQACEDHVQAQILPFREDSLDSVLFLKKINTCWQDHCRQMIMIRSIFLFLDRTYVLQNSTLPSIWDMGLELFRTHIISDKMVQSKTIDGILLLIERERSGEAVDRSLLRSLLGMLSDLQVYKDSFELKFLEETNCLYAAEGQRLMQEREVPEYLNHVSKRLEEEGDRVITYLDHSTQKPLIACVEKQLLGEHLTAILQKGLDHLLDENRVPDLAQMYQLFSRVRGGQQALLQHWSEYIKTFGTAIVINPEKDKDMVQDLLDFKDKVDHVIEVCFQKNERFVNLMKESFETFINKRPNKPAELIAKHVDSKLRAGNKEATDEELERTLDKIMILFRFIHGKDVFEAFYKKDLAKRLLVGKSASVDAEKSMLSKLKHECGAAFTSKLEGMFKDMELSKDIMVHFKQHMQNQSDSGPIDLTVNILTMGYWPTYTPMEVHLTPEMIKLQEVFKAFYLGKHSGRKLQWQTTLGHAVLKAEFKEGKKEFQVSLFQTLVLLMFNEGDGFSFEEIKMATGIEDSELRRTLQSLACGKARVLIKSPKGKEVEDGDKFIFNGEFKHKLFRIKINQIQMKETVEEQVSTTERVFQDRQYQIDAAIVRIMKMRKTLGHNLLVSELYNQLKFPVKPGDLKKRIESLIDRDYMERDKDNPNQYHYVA

[4] = system: CycK in HEK293TCas9 cells; assay: Immunoblots of CycK degradation; format: cell-based, human; settings: pre-treated with 0.5 μM MLN7243, 1 μM MLN4924 or 10 μM MG132 for 4 hours, then 1 μM CR8 for 2 hours
[5] = system: HEK293TCas9 cells; settings: 3 days
[6] = system: K562Cas9, OVK16Cas9, A564Cas9, ES2Cas9 and MOLM13Cas9 cell lines; assay: Validation of drug-E3 ligase pairs; format: cell-based; settings: flow-based validation, 3 days

CDK12-cycK and DDB1, sequence (Q9NYV4 713-1052 K965R): as the sequence (Q9NYV4 713-1052 K965R) above
CDK12-cycK and DDB1, sequence (O75909 1-267, further chain): as the sequence (O75909 1-267, further chain) above
CDK12-cycK and DDB1, sequence (Q16531 whole entry): as the sequence (Q16531 whole entry) above

Row | Compound | effect on CDK12-cycK interaction with DDB1 (TR-FRET signal) [1] | cycK ubiquitination in vitro [3] | rescue of CR8-induced cycK degradation [4] | also measured
1 | Nc1ncnc2c1ncn2[C@@H]1O[C@H](COP(=O)(O)OP(=O)(O)OP(=O)(O)O)[C@@H](O)[C@H]1O [ATP] | neither facilitated nor abrogated the interaction |  |  | 
2 | CN1CC[C@H](c2c(O)cc(O)c3c(=O)cc(-c4ccccc4Cl)oc23)[C@H](O)C1 [Flavopiridol] | stimulated the binding of CDK12-cycK to DDB1 | moderate cycK ubiquitination |  | degradation of the cycKeGFP reporter in cells ([2]; HEK293TCas9 cells, 1 μM compound, 2 hours): failed to degrade cycK in cells
3 | CC(C)C[C@@H](C=O)NC(=O)[C@H](CC(C)C)NC(=O)[C@H](CC(C)C)NC(=O)OCc1ccccc1 [MG132] (Cbz-Leu-Leu-Leu-aldehyde) |  |  | rescued | 
4 | NS(=O)(=O)OC[C@@H]1C[C@@H](n2ccc3c(N[C@H]4CCc5ccccc54)ncnc32)C[C@@H]1O [MLN4924] |  |  | rescued | effect on cell viability [5]: only minor effects on cell viability
5 | NS(=O)(=O)OC[C@H]1C[C@@H](Nc2ccnc3cc(-c4cccc(SC(F)(F)F)c4)nn23)[C@H](O)[C@@H]1O [MLN7243] |  |  | rescued | 
6 | CC[C@H](CO)Nc1nc(NCc2ccccc2)c2ncn(C(C)C)c2n1 [Roscovitine] |  | less processive ubiquitination |  | degradation of the cycKeGFP reporter in cells [2]: neither DRF053 nor roscovitine induced degradation
7 | CN(C)C/C=C/C(=O)Nc1ccc(C(=O)N2CCC[C@@H](Nc3ncc(Cl)c(-c4c[nH]c5ccccc45)n3)C2)cc1 [THZ531] | further decreased the TR-FRET signal | diminished cycK ubiquitination in vitro below DMSO control levels |  | 
8 | NS(=O)(=O)c1ccc(S(=O)(=O)Nc2cccc3c(Cl)c[nH]c23)cc1 [indisulam] |  |  |  | effect of sgRNAs targeting DCAF15 on drug-induced toxicity [6]: confer resistance
9 | O=C(NS(=O)(=O)c1ccc(Br)s1)c1ccc(Cl)cc1Cl [tasisulam] |  |  |  | effect of sgRNAs targeting DCAF15 on drug-induced toxicity [6]: confer resistance
